BindingDB's records for doi:10.1111/cbdd.12116 (University of Troms&#163, 2013)
pKi: −log10 of the molar value.

The compounds below were run against Sodium-dependent serotonin transporter (Rattus norvegicus, UniProt P31652) (assay: In vitro Binding Affinity Assay). Conditions: pH 7.7; 25 °C.
Experimental: The assay was performed in accordance with the method described by Owens et al. with slight modifications. Rat cerebral cortex was homogenized in 30 volumes of ice-cold 50mM Tris-HCl containing 150mM NaCl and 5mM KCl, pH 7.7, at 25°C and centrifuged at 20,000 x g for 20 min. Pellet was resuspended in 30 volumes of buffer and centrifuged again for 2 more times. The mixture of 240uL of the tissue suspension, 30uL of 1µM imipramine, 30uL of 1nM [3H]-citalopram and 100µL of the analyzed compound (10^-10 to 10^-4M) were incubated at 22°C for 1 h. Incubations were terminated by vacuum filtration and washed twice with 100µL of ice-cold buffer. The radioactivity was measured using a WALLAC 1409 DSA liquid scintillation counter.

Sequence of Sodium-dependent serotonin transporter (P31652 whole entry): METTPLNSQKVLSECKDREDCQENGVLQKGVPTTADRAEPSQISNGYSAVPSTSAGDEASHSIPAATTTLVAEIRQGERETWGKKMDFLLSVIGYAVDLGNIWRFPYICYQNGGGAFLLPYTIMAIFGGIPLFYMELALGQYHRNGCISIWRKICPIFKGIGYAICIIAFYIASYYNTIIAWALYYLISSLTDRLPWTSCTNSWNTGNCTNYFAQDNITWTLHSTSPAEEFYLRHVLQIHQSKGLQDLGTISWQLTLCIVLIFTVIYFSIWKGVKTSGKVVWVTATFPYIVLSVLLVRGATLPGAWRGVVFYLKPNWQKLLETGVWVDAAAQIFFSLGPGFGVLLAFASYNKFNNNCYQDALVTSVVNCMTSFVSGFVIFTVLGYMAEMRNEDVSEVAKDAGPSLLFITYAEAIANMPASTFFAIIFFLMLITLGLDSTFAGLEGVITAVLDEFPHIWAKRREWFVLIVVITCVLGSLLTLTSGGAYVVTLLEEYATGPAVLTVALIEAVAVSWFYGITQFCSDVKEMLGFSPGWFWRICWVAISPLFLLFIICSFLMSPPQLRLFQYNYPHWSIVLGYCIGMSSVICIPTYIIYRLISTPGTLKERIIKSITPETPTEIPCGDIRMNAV

SMILES	pKi
CCCCN1CCN(c2ccc3cc([N+](=O)[O-])ccc3n2)CC1 [2-(4-Butyl-piperazin-1-yl)-6-nitroquinoline (4)]	7.62
CCCCCCCCCCN1CCN(c2ccc3cc([N+](=O)[O-])ccc3n2)CC1 [2-(4-Decyl-piperazin-1-yl)-6-nitroquinoline (10)]	8.35
CCCCCCCCCCCCN1CCN(c2ccc3cc([N+](=O)[O-])ccc3n2)CC1 [2-(4-Dodecyl-piperazin-1-yl)-6-nitroquinoline (12)]	7.79
CCN1CCN(c2ccc3cc([N+](=O)[O-])ccc3n2)CC1 [2-(4-Ethyl-piperazin-1-yl)-6-nitroquinoline (2)]	7.06
CCCCCCCN1CCN(c2ccc3cc([N+](=O)[O-])ccc3n2)CC1 [2-(4-Heptyl-piperazin-1-yl)-6-nitroquinoline (7)]	7.27
CCCCCCN1CCN(c2ccc3cc([N+](=O)[O-])ccc3n2)CC1 [2-(4-Hexyl-piperazin-1-yl)-6-nitroquinoline (6)]	7.14
CN1CCN(c2ccc3cc([N+](=O)[O-])ccc3n2)CC1 [2-(4-Methyl-piperazin-1-yl)-6-nitroquinoline (1)]	5.89
CCCCCCCCCN1CCN(c2ccc3cc([N+](=O)[O-])ccc3n2)CC1 [2-(4-Nonyl-piperazin-1-yl)-6-nitroquinoline (9)]	8.74
CCCCCCCCN1CCN(c2ccc3cc([N+](=O)[O-])ccc3n2)CC1 [2-(4-Octyl-piperazin-1-yl)-6-nitroquinoline (8)]	7.68
CCCCCN1CCN(c2ccc3cc([N+](=O)[O-])ccc3n2)CC1 [2-(4-Pentyl-piperazin-1-yl)-6-nitroquinoline (5)]	7.09
CCCN1CCN(c2ccc3cc([N+](=O)[O-])ccc3n2)CC1 [2-(4-Propyl-piperazin-1-yl)-6-nitroquinoline (3)]	6.30
CCCCCCCCCCCN1CCN(c2ccc3cc([N+](=O)[O-])ccc3n2)CC1 [2-(4-Undecyl-piperazin-1-yl)-6-nitroquinoline (11)]	7.90
